Assay results: patent US20080009538A1, “Methods and compositions for the treatment of urinary incontinence” (priority 2005, published 2008)
Where a name gives a salt, the structure may show the parent alone. Read-outs that look alike come from different tables or passages of the source.

Assays:
[1] = test system: Female rats; assay: Neurogenic overactive bladder in spinal cord transected rats; type: in vivo, rat; settings: versus no drug or vehicle
Procedure: The spinal cord is transected and the intervening space filled with Gelfoam. The overlying muscle layers and skin are sequentially closed with suture, and the animals are treated with antibiotic (100 mg/kg ampicillin s.c.) Residual urine is expressed prior to returning the animals to their cages, and thereafter 3 times daily until terminal experimentation four weeks later. On the day of the experiment, the animals are anesthetized with isofluorane (4%) and a jugular catheter is inserted for access to the systemic circulation and tunneled subcutaneously to exit through the midscapular region. Via a midline abdominal incision, a catheter with a fire-flared tip is inserted into the dome of the bladder through a small cystotomy and secured by ligation for bladder filling and pressure recording. Electrodes are inserted percutaneously into the external urethral sphincter for electromyography readings. […]
Following a 60-90 minute control period of normal saline infusion (0.100-0.150 ml/min) to collect baseline continuous open cystometric data, the pump is turned off, the bladder is emptied, the pump turned back on, and bladder capacity is estimated by a filling cystometrogram. […] Following the third administration of vehicle control, bladder capacity is again measured through a cystometrogram. […] Bladder capacity is measured as described above at 20 minutes following each subsequent drug treatment.

[2] = biological target: T1, serotonin transporter protein (Homo sapiens, UniProt P31645); assay: [3H]serotonin uptake in HEK 293 cells expressing the transporter; type: cell-based; settings: recombinant human serotonin transporter, 20 nM [3H]serotonin, read-out: inhibition of [3H]Serotonin uptake (IC50)
T1 construct: expressed in transfected cells; host or cells: HEK 293 cells
Procedure: (§1) The effects bicifadine on [^3H]norepinephrine and [^3H]serotonin uptake were measured in HEK 293 cells expressing the recombinant human forms of the norepinephrine and serotonin transporter proteins, respectively using a modification of the techniques described by Eschleman, et al., (1999). Cells were grown on 150-mm-diameter tissue culture dishes until confluent. Medium was removed from the plates and the cells were washed twice with Ca^2+, Mg^2+-free PBS. Fresh Ca^2+, Mg^2+-free PBS (2.5 ml) was then added to each plate and the plates were placed in a 25° C. water bath for 5 min. The cells were then gently scraped from the plates, and cell clusters were separated by trituration with a pipette for 5 to 10 aspirations and ejections. Aliquots (50 μl) of the suspended cells were then added to assay tubes (in triplicate) containing various concentrations of bicifadine and Krebs-HEPES assay buffer in a final assay volume of 0.5 ml. Following a 10-min pre-incubation in a 25° C. water bath, [^3H]norepinephrine or serotonin (20 nM final concentration) was added, and the assay was incubated for 10 min. The reaction was terminated by filtration through Wallac filtermat A filters presoaked in 0.05% polyethylenimine, using a Tomtec cell harvester. Scintillation fluid was then added to each filtered spot, and radioactivity remaining on the filters was determined by scintillation counting. […]

[3] = Blood pressure in human subjects; type: in vivo
[4] = biological target: α1 adrenergic receptor; assay: α1 adrenergic receptor [3H]prazosin binding, rat cerebral cortex preparation; settings: [3H]prazosin 0.25 nM, 60 min at 22° C., read-out: Inhibition of radioligand binding, affinity (Ki)
Procedure: At the end of 60 min, the assay was terminated by vacuum filtration and the amount of radioactivity deposited on the filter measured by scintillation counting.
(§2) Ki=inhibitory constant defined as IC50/L+KD; IC50=concentration of bicifadine HCl that inhibits 50% of the maximal response; L=concentration of radioligand added; KD, dissociation constant of the radioligand at equilibrium.

[5] = biological target: T2, 5-HT2A receptor (Homo sapiens, UniProt P28223); assay: 5-HT2A receptor [3H]LSD binding screen, recombinant receptors in CHO cells; settings: [3H]LSD 1.2 nM, recombinant human 5-HT2A in CHO cells, 37° C., 30 min, read-out: inhibition of radioligand binding
T2 construct: expressed in transfected cells; host or cells: CHO cells

[6] = test system: Adult cats; assay: Dilute acetic acid bladder model in anesthetized cats (cystometrogram); type: in vivo, cat; settings: i.v., during 0.5% acetic acid infusion
Procedure: Adult cats (male and female) were anesthetized with α-chloralose (50-75 mg/kg i.v.) A cannula was inserted into the trachea to maintain a clear airway. One catheter was inserted into the carotid artery to measure systemic blood pressure, and another was placed into the radial vein for injecting bicifadine hydrochloride. All doses of bicifadine hydrochloride were based on body weight.
Electromyography electrodes were placed in the periurethral striated muscle. A catheter was inserted through the dome of the bladder and was used to infuse either saline for the control or dilute (0.5%) acetic acid into the test cats. The catheter was also used to record bladder pressure during each voiding cystometrogram. After bladder capacity was established using the saline infusion, cysometrograms were taken after an infusion of dilute acetic acid and changes in bladder capacity were recorded. […] Fluid release during micturition was measured by collecting the fluid in a cylinder attached to a force transducer.
On reaching micturition threshold, acetic acid infusion of the bladder was continued, resulting in rhythmic micturition contractions throughout the infusion period. During this time of rhythmic bladder activity, either vehicle as the control or bicifadine hydrochloride was administered. Five minutes after each administration of bicifadine hydrochloride, the bladder was emptied and another cystometrogram was performed. This procedure was repeated with increasing doses of bicifadine hydrochloride.
Under control conditions, rapid increases in intravessicular pressure were recorded after infusion of 5.3±0.6 ml saline into an initially empty bladder. Bladder capacity was reached after infusion of approximately 10.5 ml of saline. When acetic acid was infused, bladder capacity was reduced by more than half. […] Normal time to contraction following instillation of saline into the bladder is approximately 1286 seconds.

[7] = test system: Adult female guinea pigs; assay: Urethral function in guinea pigs (external urethral sphincter EMG); type: in vivo, guinea pig; settings: intravenous, normal bladder filling, versus no drug or vehicle
Description: Yet another animal model for evaluating efficacy of bicifadine as an anti-incontinence drug is a widely accepted guinea pig model, also predictive of anti-incontinence drug activity in humans. Adult female guinea pigs, weighing 620-707 g, are initially anesthetized with halothane and maintained with urethane. A cannula is inserted into the trachea, a jugular vein and a carotid artery for respiratory ventilation, injection of the test compound and monitoring of the blood pressure, respectively. A midline laporatomy is performed to expose the urinary bladder and a cystometry tube is inserted through a small incision in the dome of the bladder. The abdominal wound is closed tightly around the externalized cystometry tube, which is connected to an infusion pump and pressure transducer, for filling the bladder and recording intravesical pressure. Electromyographic electrodes are inserted into the striated muscles of the external urethral sphincter.
The bladder is filled at a rate of 150 μl/min^−1 with saline until initiation of a micturition reflex. […]
The bladder is then filed to 75% of the threshold volume with saline and weights are positioned on the ventral surface of the abdomen of the animal just rostral to the position of the bladder. […] Electromyographic activity and intravesical pressure are recorded while weights are applied to the abdomen. […]

[8] = biological target: T3, norepinephrine transporter protein (Homo sapiens, UniProt P23975); assay: [3H]norepinephrine uptake in HEK 293 cells expressing the transporter; type: cell-based; settings: recombinant human norepinephrine transporter, 20 nM [3H]norepinephrine, read-out: inhibition of [3H]Norepinephrine uptake (IC50)
T3 construct: expressed in transfected cells; host or cells: HEK 293 cells
Procedure: as §1

[9] = biological target: α2 adrenergic receptor; assay: α2 adrenergic receptor [3H]RX 821002 binding, rat cerebral cortex preparation
Procedure: This assay was conducted by incubating the rat cortex preparation with a 0.5 nM concentration of [^3H]RX 821002 for 30 min at 22° C. in the presence of either 0.1, 0.3, 1, 3, or 10 μM concentrations bicifadine HCl. Unlabelled (−)epinephrine (100 μM) was used to determine nonspecific binding. The assay was terminated by vacuum filtration, and the amount of radiolabeled receptor retained by the filter measured by scintillation counting. […] Recombinant human 5-HT2A receptors expressed in CHO cells were incubated with bicifadine HCl (0.1, 1 or 10 μM) and [^3H]LSD (1.2 nM) at 37° C. for 30 min (Bonhaus 1995). Serotonin (10 μM) was used to determine nonspecific binding.
as §2

[10] = test system: Female rats; assay: Dilute acetic acid model in rats (filling cystometry); type: in vivo, rat; settings: intraduodenal, 0.25% acetic acid continuous irritation
Description: Additional animal models for evaluating efficacy of bicifadine as an anti-incontinence drug include a widely accepted rat model predictive of anti-incontinence drug activity in humans. Female rats (250-275 g BW, n=8) are anesthetized with urethane (1.2 g/kg) and a saline-filled catheter is inserted into the proximal duodenum for intraduodenal drug administration. A flared-tipped catheter is inserted into the bladder dome, via a midline lower abdominal incision, for bladder filling and pressure recording, and secured by ligation. Electromyography elctrodes are inserted into the external urethral sphincter percutaneously.
In the control, saline is continuously infused at a rate of about 0.055 ml/min via the bladder filling catheter for about 60 minutes to obtain a baseline of lower urinary tract activity. […] Bladder capacity (ml) is calculated as the flow rate of the bladder filling solution […] multiplied by the elapsed time between commencement of bladder filling and occurrence of bladder contraction (min).
Following the control period, a 0.25% acetic acid solution in saline is infused into the bladder to induce bladder irritation. […] Following injection of the third vehicle control, bladder capacity is again measured using acetic acid to fill the bladder. […]

T1 sequence (P31645 whole entry): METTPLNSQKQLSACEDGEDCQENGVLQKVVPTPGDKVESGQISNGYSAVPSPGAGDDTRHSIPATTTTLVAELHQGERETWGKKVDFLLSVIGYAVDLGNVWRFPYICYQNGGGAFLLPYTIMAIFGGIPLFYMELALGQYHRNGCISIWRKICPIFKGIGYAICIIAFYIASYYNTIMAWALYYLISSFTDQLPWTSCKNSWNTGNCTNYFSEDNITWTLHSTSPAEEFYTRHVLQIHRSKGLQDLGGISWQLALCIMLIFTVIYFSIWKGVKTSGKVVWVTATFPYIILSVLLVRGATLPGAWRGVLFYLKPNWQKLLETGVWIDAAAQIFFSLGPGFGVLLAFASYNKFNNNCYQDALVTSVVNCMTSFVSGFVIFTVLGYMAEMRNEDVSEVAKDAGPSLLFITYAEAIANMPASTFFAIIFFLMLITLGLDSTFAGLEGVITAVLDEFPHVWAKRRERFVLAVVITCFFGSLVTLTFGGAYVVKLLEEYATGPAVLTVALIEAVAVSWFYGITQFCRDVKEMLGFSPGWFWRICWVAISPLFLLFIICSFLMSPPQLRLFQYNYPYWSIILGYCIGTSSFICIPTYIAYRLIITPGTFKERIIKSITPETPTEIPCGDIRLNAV
T2 sequence (P28223 whole entry): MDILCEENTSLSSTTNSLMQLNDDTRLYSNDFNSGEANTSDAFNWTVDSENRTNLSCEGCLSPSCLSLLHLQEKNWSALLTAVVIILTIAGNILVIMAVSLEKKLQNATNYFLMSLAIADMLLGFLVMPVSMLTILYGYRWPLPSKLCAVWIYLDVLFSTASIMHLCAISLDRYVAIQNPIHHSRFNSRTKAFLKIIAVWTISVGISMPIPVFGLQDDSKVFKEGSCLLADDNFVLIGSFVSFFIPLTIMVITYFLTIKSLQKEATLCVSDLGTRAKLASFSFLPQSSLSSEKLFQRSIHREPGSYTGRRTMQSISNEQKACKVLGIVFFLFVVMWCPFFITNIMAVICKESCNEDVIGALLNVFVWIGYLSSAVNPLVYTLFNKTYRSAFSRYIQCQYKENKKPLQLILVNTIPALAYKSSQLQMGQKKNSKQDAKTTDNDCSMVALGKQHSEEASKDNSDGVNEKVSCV
T3 sequence (P23975 whole entry): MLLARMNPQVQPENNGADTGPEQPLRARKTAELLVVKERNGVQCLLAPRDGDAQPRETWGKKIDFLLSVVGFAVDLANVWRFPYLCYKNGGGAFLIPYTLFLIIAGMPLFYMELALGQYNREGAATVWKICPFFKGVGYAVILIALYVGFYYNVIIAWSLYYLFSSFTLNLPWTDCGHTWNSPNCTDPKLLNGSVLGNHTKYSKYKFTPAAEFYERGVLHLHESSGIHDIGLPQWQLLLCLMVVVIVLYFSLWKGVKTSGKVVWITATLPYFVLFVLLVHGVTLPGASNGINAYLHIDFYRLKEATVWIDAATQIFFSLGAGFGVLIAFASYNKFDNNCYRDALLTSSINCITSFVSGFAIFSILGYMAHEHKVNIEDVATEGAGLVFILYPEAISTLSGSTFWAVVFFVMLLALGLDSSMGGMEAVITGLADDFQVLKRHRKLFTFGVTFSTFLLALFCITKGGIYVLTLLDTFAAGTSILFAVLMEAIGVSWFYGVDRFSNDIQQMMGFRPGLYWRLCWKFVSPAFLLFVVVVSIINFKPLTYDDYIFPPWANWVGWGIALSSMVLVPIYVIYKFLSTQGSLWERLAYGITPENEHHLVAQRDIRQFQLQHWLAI

| IC50 [2] [nM] | Ki [4] [nM] | inhibition at 10 µM [5] [%] | IC50 [8] [nM] | Ki ([9]; read-out: Inhibition of radioligand binding, affinity (Ki), [3H]RX 821002 0.5 nM, 30 min at 22° C., hydrochloride) [nM] | Ki ([9]; read-out: Inhibition of radioligand binding, affinity (Ki), [3H]RX 821002 0.5 nM, 30 min at 22° C., listed as bicifadine, hydrochloride) [nM] | Structure (SMILES) | bladder capacity [1] | alterations in blood pressure [3] | bladder activity [6] | bladder capacity [6] | time to contraction (latency to bladder contraction) [6] | electromyographic activity of external urethral sphincter [7] | bladder capacity [10] |
| --- | --- | --- | --- | --- | --- | --- | --- | --- | --- | --- | --- | --- | --- |
| 117 | 1000 | 82 | 54.7 | 610 | 600 | Cc1ccc([C@]23CNC[C@H]2C3)cc1 (racemic) [Bicifadine HCl, (±)-1-(4-methylphenyl)-3-azabicyclo[3.1.0]hexane hydrochloride] | increase in bladder capacity | did not cause significant alterations in blood pressure | pronounced inhibition of bladder activity | increased bladder capacity to near control conditions | increased the time to contraction | increase in electromyographic activity | increase in bladder capacity |
|  |  |  |  |  |  | Cc1ccc(C23CNCC2C3)cc1.Cl (single isomer, unassigned; (+)) [(+)-bicifadine HCl, (+)-1-(p-Tolyl)-3-azabicyclo[3.1.0]hexane hydrochloride] |  |  | pronounced inhibition of bladder activity | increased bladder capacity to near control conditions | increased the time to contraction |  |  |
